Data reported in patent publication US11618916B2, “Probe for measuring activity of Caspase-1 and composition for diagnosis of inflammatory diseases containing same” (KOREA INSTITUTE OF SCIENCE AND TECHNOLOGY, priority 2018, dated 2023).
Each block holds one compound with its values, some of them ahead of it.

Tests used:
Alzheimer's animal model = assay: Imaging of Alzheimer's animal model; format: in vivo, B6SJL-Tg (APPSwFILon, PSEN1*M146L*L286V)6799Vas/Mmjax) mice
Protocol: In order to establish an Alzheimer's animal model, 3- to 6-month-old B6SJL-Tg (APPSwFILon, PSEN1*M146L*L286V)6799Vas/Mmjax) mice acquired from the […] (Bar Harbor, USA) were accustomed for a week and then reared in animal plastic cages, with 4 mice per cage. The cage was controlled with artificial lighting for 12 hours from 7 am to 7 pm, indoor temperature of 18-23° C. and 40-60% humidity. Clean water and feed were given freely. An Alzheimer's animal model was induced through genetic APP mutation. Amyloid beta, which is the cause of dementia, is accumulated from 3 months later and form aggregates 4 months later. […] A control group (pre) was not subjected to the genetic mutation.

caspase-1 enzyme [1] = biological target: T1, caspase-1 enzyme (Homo sapiens, UniProt P29466); assay: Fluorescence restoration depending on caspase-1 enzyme concentration; format: biochemical; details: FIG. 3B
T1 sequence (P29466 120-297 limits assumed): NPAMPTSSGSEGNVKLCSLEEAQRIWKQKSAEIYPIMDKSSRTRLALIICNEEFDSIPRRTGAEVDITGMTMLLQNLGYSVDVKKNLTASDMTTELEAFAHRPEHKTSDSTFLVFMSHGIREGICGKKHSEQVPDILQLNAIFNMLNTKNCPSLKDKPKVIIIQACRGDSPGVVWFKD
T1 sequence (P29466 317-404 limits assumed): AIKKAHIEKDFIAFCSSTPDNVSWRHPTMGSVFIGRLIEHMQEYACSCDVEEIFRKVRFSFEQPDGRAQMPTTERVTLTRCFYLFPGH
Protocol: In order to investigate the fluorescence of the probe for measuring the activity of caspase-1 prepared in Example 4 depending on the concentration of the caspase-1 enzyme, the change in fluorescence with time was analyzed and evaluated using the caspase-1 enzyme at various concentrations (0, 2.5, 5, 7.5 and 10 units).
First, the caspase enzyme of various concentrations (0, 2.5, 5, 7.5 and 10 units) was dissolved in a reaction buffer (0.5 mM HEPES, pH 7.2, 50 mM calcium chloride, 0.1% CHAPS, 10 mM EDTA, 5% glycerol, 10 mM DTT) and incubated at 37° C. for 1 hour. After transferring 200 μL of the caspase enzyme activated through the procedure to each well of a 96-well plate and then incubating with the probe for measuring the activity of caspase-1 of Example 4 at 37° C., the restoration of fluorescence with time was observed by fluorescence spectroscopy.
The fluorescence image for each reaction solution is shown at the bottom of FIG. 3B.

[2] = tested on: colitis animal model (DSS); assay: Imaging of DSS colitis animal model; format: in vivo, C57BL/6 mice; details: DSS vs normal
Protocol: In order to establish a colitis animal model, 8-week-old C57BL/6 mice acquired from Nara Bio were accustomed for a week and then reared in animal plastic cages, with 4 mice per cage. The cage was controlled with artificial lighting for 12 hours from 7 am to 7 pm, indoor temperature of 18-23° C. and 40-60% humidity. Clean water and feed were given freely. Colitis was induced by providing the experimental animal with drinking water containing 3% dextran sodium sulfate (DSS). […] Because the body weight of the colitis animal model decreases proportionally to the progress of the disease, the probe for measuring the activity of caspase-1 of Example 4 was administered on day 6, when the body weight was decreased to 80%, for imaging. As a control group (normal), a non-colitis-induced group was prepared by providing normal drinking water to the experimental animal.

caspase-1 enzyme [3] = biological target: T1, caspase-1 enzyme; assay: Specific activity of probe: fluorescence restoration with caspase enzymes (caspase-1, 3, 8, 11) or caspase-1 inhibitor; format: biochemical; details: caspase-1, 3, 8, 11 at 2 units or caspase-1 inhibitor; 37° C.; FIG. 3A
Protocol: In order to investigate whether the probe for measuring the activity of caspase-1 prepared in Example 4 is specifically cleaved by the caspase-1 enzyme and restores fluorescence, the change in fluorescence with time was analyzed and evaluated using various caspase enzymes (caspase-1, 3, 8 and 11) and a caspase-1 inhibitor.
First, a caspase enzyme or a caspase-1 inhibitor was dissolved in a reaction buffer (0.5 mM HEPES, pH 7.2, 50 mM calcium chloride, 0.1% CHAPS, 10 mM EDTA, 5% glycerol, 10 mM DTT) and then incubated at 37° C. for 1 hour. All the enzymes were used at the same concentration of 2 units. After transferring 200 μL of the caspase enzyme activated through the procedure to each well of a 96-well plate and then incubating with the probe for measuring the activity of caspase-1 of Example 4 at 37° C., the restoration of fluorescence with time was observed by fluorescence spectroscopy.
The photographs at the bottom of FIG. 3A show the fluorescence images of the respective reaction solutions. (+)Cas-1 was treated with the caspase-1 enzyme, (+)cas-1 inhibitor was treated with the caspase-1 inhibitor, (+)cas-3 was treated with the caspase-3 enzyme, (+)cas-8 was treated with the caspase-8 enzyme, and (+)cas-11 was treated with the caspase-11 enzyme.

THP-1 monocytes = assay: Fluorescence restoration in LPS/ATP-treated cells, fluorescence microscope; format: cell-based; details: THP-1 treated with 1.5 μg/mL LPS and 5 mM ATP, probe 3.5 hours later; vs control without LPS/ATP; FIG. 4B
Protocol: THP-1 monocytes were placed on a 96-well plate and treated with 1.5 μg/mL LPS and 5 mM ATP one day later. 3.5 hours later, the probe for measuring the activity of caspase-1 prepared in Example 4 was administered. Then, after culturing for 24 hours, fluorescence restoration by the probe for measuring the activity of caspase-1 in the cells was analyzed with a fluorescence microscope.
Control was treated with neither LPS nor ATP.
LPS and ATP are known to activate caspase-1. LPS is a primary signal occurring in the early stage of inflammation and ATP is a secondary signal. […] That is to say, it was confirmed that the probe for measuring the activity of caspase-1 of the present disclosure can accurately measure caspase-1 activated by inflammation response.

[4] = tested on: inflammation-induced animal model; assay: Detection of inflammation in LPS/ATP inflammation-induced animal model, IVIS Lumina imaging; format: in vivo, C57BL/6 mice
Protocol: The caspase-1 enzyme is activated due to various factors. Among them, the most representative method is to activate inflammasome by administering LPS or ATP which induces early inflammation response. In Test Example 5, it was confirmed using the probe for measuring the activity of caspase-1 of Example 4 that the administration of LPS and ATP induced the activation of inflammasome, which is an early inflammation response. In this test example, an experiment was carried out using an inflammation-induced animal model in order to investigate whether the probe for measuring the activity of caspase-1 of Example 4 works well in vivo, too. In order to establish the inflammation-induced animal model, 8-week-old C57BL/6 mice acquired from Nara Bio were accustomed for a week and then reared in animal plastic cages, with 4 mice per cage. The cage was controlled with artificial lighting for 12 hours from 7 am to […], indoor temperature of 18-23° C. and 40-60% humidity. Clean water and feed were given freely. Then, physiological saline (control group), 20 μg of LPS and 50 mM ATP (Ms1 test group) or 20 μg of LPS and 100 mM ATP (Ms2 test group) was injected into the left sole of the experimental animal. After intravenously injecting the probe for measuring the activity of caspase-1 prepared in Example 4 with 3-day intervals, the respective groups were imaged with IVIS Lumina with 30-minute intervals.

[5] = tested on: T2, probe for measuring the activity of caspase-1 prepared in Example 4
T2 sequence: GWEHDGK

concentration limit of the caspase-1 enzyme that could be measured (caspase-1 enzyme [1]): 7.5 units
Compound: CCN(CC)c1ccc2nc3ccc(/N=N/c4ccc(N(C)CCCC(=O)NCCCCC(NC(=O)CNC(=O)[C@H](CC(=O)O)NC(=O)[C@H](Cc5c[nH]cn5)NC(=O)[C@H](CCC(=O)O)NC(=O)[C@H](Cc5c[nH]c6ccccc56)NC(=O)CNC(=O)CCCCCCCN5/C(=C/C=C/C=C/C6=[N+](CC)c7ccc8c(S(=O)(=O)O)cc(S(=O)(=O)O)cc8c7C6(C)C)C(C)(C)c6c5ccc5c(S(=O)(=O)O)cc(S(=O)(=O)O)cc65)C(=O)O)cc4)cc3[n+](-c3ccccc3)c2c1 (stereo partly shown) [Example 4]
fluorescence images 90 minutes after intravenous injection (Alzheimer's animal model; Alzheimer's animal models of 3-6 months vs control (pre), FIG. 7A): the fluorescence could be observed in the Alzheimer's animal model from 3 months
co-localisation of probe fluorescence with caspase-1 antibody staining in brain tissue (Alzheimer's animal model; model of 3 months (TG), 3 hours after probe, FIG. 7E): corresponds exactly to the region immunologically stained with the caspase-1 antibody
fluorescence from the brain (Alzheimer's animal model; models of 3, 4, 5 and 6 months, FIG. 7B): fluorescence was observed in the brain of the Alzheimer's animal model from 4 months
fluorescence in quadrisected brain (fluorescence microscope) (Alzheimer's animal model; models of 3-6 months, FIG. 7D): the fluorescence was observed clearly in the hippocampal region of the brain
quantified fluorescence intensity from the brain (Alzheimer's animal model; vs control group (WT), FIG. 7C): significant fluorescence intensity began to be observed starting from the Alzheimer's animal model of 4 months
change in fluorescence intensity with caspase-1 enzyme concentration (caspase-1 enzyme [1]; caspase-1 at 0, 2.5, 5, 7.5 and 10 units, 37° C.): increase in fluorescence intensity as the concentration of the caspase-1 enzyme increases
fluorescence from the extracted large intestine ([2]; FIG. 6D): Strong red fluorescence was observed in the large intestine extracted from the colitis animal model
Cy5.5 fluorescence in isolated colon cells (fluorescence microscope, NLRP3 inflammasome co-staining) ([2]; FIG. 6F): only in the colon cells isolated from the colitis animal model
whole-body fluorescence images after intravenous injection ([2]; day 6, 30-minute intervals, FIG. 6C): red fluorescence was observed clearly in the colitis animal model
restoration of fluorescence with time (photoluminescence), specificity among caspase enzymes (caspase-1 enzyme [3]): restores fluorescence specifically only in the presence of caspase-1 at all times
fluorescence restoration in cells (THP-1 monocytes): the fluorescence of Cy5.5 was restored effectively as compared to the control group
in-vivo fluorescence depending on the concentration of inflammation-inducing substances (images) ([4]; LPS/ATP into left sole (Ms1: 20 μg LPS + 50 mM ATP; Ms2: 20 μg LPS + 100 mM ATP), probe intravenously, FIG. 5A): the fluorescence was restored better
quantified fluorescence from the top of the left foot and the left calf ([4]; control, Ms1 and Ms2 test groups, FIG. 5B): exhibits stronger fluorescence
fluorescence from the groin, ham and lymph node ([4]; control, Ms1 and Ms2 test groups, FIG. 5C): The strongest fluorescence was observed in the ham lymph node closest to the sole

Compound: caspase-1 enzyme
restoration of fluorescence with time by photoluminescence (PL) after cleavage of the probe [5]: restores fluorescence specifically only in the presence of caspase-1 at all times

Compound: caspase-3 enzyme
restoration of fluorescence with time by photoluminescence (PL) after cleavage of the probe [5]: restores fluorescence specifically only in the presence of caspase-1 at all times

Compound: caspase-8 enzyme
restoration of fluorescence with time by photoluminescence (PL) after cleavage of the probe [5]: restores fluorescence specifically only in the presence of caspase-1 at all times

Compound: caspase-11 enzyme
restoration of fluorescence with time by photoluminescence (PL) after cleavage of the probe [5]: restores fluorescence specifically only in the presence of caspase-1 at all times
